Data from ChEMBL document CHEMBL1201862, “PubChem BioAssay data set” (2004).
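Each compound was tested at five concentrations against cells in 96-well plates for 48 hours. GI50 = concentration required for 50% inhibition of growth.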 Calls of active or inactive are those of the source. No stated cut-off is given here; in the data, active = GI50 up to about 1.1 µM and inactive = higher.

Legend:
Assay in all cases: NCI-60 cell line screen, 48 h
[1] = system: SN12C
[2] = system: NCI-H460
[3] = system: HT-29
[4] = system: LXFL 529
[5] = system: EKVX
[6] = system: NCI-H23
[7] = system: A549
[8] = system: HCC 2998
[9] = system: UACC-62
[10] = system: HOP-62
[11] = system: KM12
[12] = system: K562
[13] = system: SF-295
[14] = system: OVCAR-3
[15] = system: SF-539
[16] = system: SR

Compound	GI50 [1]	GI50 [2]	GI50 [3]	GI50 [4]	GI50 [5]	GI50 [6]	GI50 [7]	GI50 [8]	GI50 [9]	GI50 [10]	GI50 [11]	GI50 [12]	GI50 [13]	GI50 [14]	GI50 [15]	GI50 [16]
Cc1ccc(-c2cc(-c3ccco3)c(C#N)c(O)n2)cc1	> 100 µM (inactive)	> 100 µM (inactive)	> 100 µM (inactive)	> 100 µM (inactive)	> 100 µM (inactive)	> 100 µM (inactive)	> 100 µM (inactive)	> 100 µM (inactive)	> 100 µM (inactive)	50.2 µM (inactive)	> 100 µM (inactive)	> 100 µM (inactive)	> 100 µM (inactive)	> 100 µM (inactive)	> 100 µM (inactive)	–
CC(C)c1cccc(C(C)C)c1/N=C(/N)C#N	> 100 µM (inactive)	> 44.9 µM (inactive)	> 58.6 µM (inactive)	> 67.1 µM (inactive)	> 100 µM (inactive)	> 100 µM (inactive)	> 44.2 µM (inactive)	> 100 µM (inactive)	> 50.2 µM (inactive)	> 100 µM (inactive)	> 56 µM (inactive)	25.4 µM (inactive)	> 100 µM (inactive)	> 100 µM (inactive)	22.8 µM (inactive)	46.2 µM (inactive)
OCCCNc1ccnc2cc(Cl)ccc12	> 100 µM (inactive)	> 100 µM (inactive)	> 100 µM (inactive)	> 100 µM (inactive)	> 100 µM (inactive)	> 100 µM (inactive)	> 100 µM (inactive)	> 100 µM (inactive)	> 100 µM (inactive)	> 100 µM (inactive)	> 100 µM (inactive)	> 100 µM (inactive)	> 100 µM (inactive)	> 100 µM (inactive)	> 100 µM (inactive)	> 100 µM (inactive)
NCCCOCC(=O)O	> 100 µM (inactive)	–	> 100 µM (inactive)	> 100 µM (inactive)	> 100 µM (inactive)	> 100 µM (inactive)	> 100 µM (inactive)	> 100 µM (inactive)	> 100 µM (inactive)	–	> 100 µM (inactive)	> 100 µM (inactive)	> 100 µM (inactive)	> 100 µM (inactive)	> 100 µM (inactive)	> 100 µM (inactive)
Nc1c(-c2ccc(Cl)cc2Cl)[n+]([O-])c2ccccc2[n+]1[O-]	> 100 µM (inactive)	> 100 µM (inactive)	> 100 µM (inactive)	> 100 µM (inactive)	> 100 µM (inactive)	> 100 µM (inactive)	> 100 µM (inactive)	> 100 µM (inactive)	> 100 µM (inactive)	> 100 µM (inactive)	> 100 µM (inactive)	> 100 µM (inactive)	> 100 µM (inactive)	> 100 µM (inactive)	> 100 µM (inactive)	–
O=c1oc(=O)c2oc3ccccc3oc1=2	> 100 µM (inactive)	> 100 µM (inactive)	> 100 µM (inactive)	> 100 µM (inactive)	> 100 µM (inactive)	> 100 µM (inactive)	> 100 µM (inactive)	> 100 µM (inactive)	> 100 µM (inactive)	> 100 µM (inactive)	> 100 µM (inactive)	> 100 µM (inactive)	> 100 µM (inactive)	> 100 µM (inactive)	> 100 µM (inactive)	> 100 µM (inactive)
COC(=O)C(=O)C(C(=O)C=C(C)C)C(=O)C(=O)Nc1nc2ccc([N+](=O)[O-])cc2s1 (stereo not drawn)	37.9 µM (inactive)	72.8 µM (inactive)	> 100 µM (inactive)	83.4 µM (inactive)	33.9 µM (inactive)	24.9 µM (inactive)	78.7 µM (inactive)	46.6 µM (inactive)	38.5 µM (inactive)	38.4 µM (inactive)	98.9 µM (inactive)	46.2 µM (inactive)	–	44.6 µM (inactive)	36.6 µM (inactive)	–
COc1cc2c(c(OC)c1O)-c1ccc(SC)c(=O)cc1C(NC(C)=O)CC2 (stereo not drawn)	0.0518 µM (active)	0.0341 µM (active)	0.0119 µM (active)	< 0.01 µM (active)	39.7 µM (inactive)	0.0167 µM (active)	0.04 µM (active)	0.0261 µM (active)	< 0.0119 µM (active)	0.0405 µM (active)	< 0.01 µM (active)	< 0.01 µM (active)	0.0184 µM (active)	< 0.01 µM (active)	< 0.01 µM (active)	0.0112 µM (active)
OCC(O)COc1c(Cl)ccc(Cl)c1Cl (stereo not drawn)	> 100 µM (inactive)	> 100 µM (inactive)	> 100 µM (inactive)	> 100 µM (inactive)	> 100 µM (inactive)	> 100 µM (inactive)	> 100 µM (inactive)	> 100 µM (inactive)	> 100 µM (inactive)	> 100 µM (inactive)	> 100 µM (inactive)	> 100 µM (inactive)	> 100 µM (inactive)	> 100 µM (inactive)	> 100 µM (inactive)	> 100 µM (inactive)
